Source: PubChem BioAssay (NCI)
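Exposure lasted 48 hours, with cells grown in 96-well plates and compounds tested at five concentrations. TGI marks complete inhibition of growth.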

Legend:
Experiment in all cases: inhibition of tumour cell growth, NCI panel, 48 h
A498 renal = tested on: A498 renal
A549 NSCLC = tested on: A549 NSCLC
EKVX NSCLC = tested on: EKVX NSCLC
HCT-116 colon = tested on: HCT-116 colon
HOP-62 NSCLC = tested on: HOP-62 NSCLC
HS 578T breast = tested on: HS 578T breast
MCF7 breast = tested on: MCF7 breast
OVCAR-4 ovarian = tested on: OVCAR-4 ovarian
SK-MEL-28 melanoma = tested on: SK-MEL-28 melanoma
SK-MEL-5 melanoma = tested on: SK-MEL-5 melanoma
TK-10 renal = tested on: TK-10 renal

Row | SMILES | TGI (A498 renal) [µM] | TGI (A549 NSCLC) [µM] | TGI (EKVX NSCLC) [µM] | TGI (HCT-116 colon) [µM] | TGI (HOP-62 NSCLC) [µM] | TGI (HS 578T breast) [µM] | TGI (MCF7 breast) [µM] | TGI (OVCAR-4 ovarian) [µM] | TGI (SK-MEL-28 melanoma) [µM] | TGI (SK-MEL-5 melanoma) [µM] | TGI (TK-10 renal) [µM]
1 | O=C(Oc1ccccn1)c1cc2cc(CCl)ccc2oc1=O | > 100 | > 100 | > 100 | 69.4 | 52.9 | 59.6 | > 100 | 55 | > 100 | > 100 | > 100
2 | Nc1nc(SC/C=C/c2ccccc2)c2[nH]cnc2n1 | > 100 | > 100 | > 100 | > 100 | > 100 | 88.8 | > 100 | > 100 | > 100 | > 100 | > 100
3 | CN=C(N=Nc1c(O)[nH]c2ccccc12)SCC(=O)c1ccc(Br)cc1 | 37.2 | 20 | > 62.8 | 19.7 | 20.7 | > 40 | 20.4 | > 100 | > 78.1 | > 93.2 | 37.7
4 | NC(=O)C(C(N)=O)=C(O)C(=O)/C=C(\O)c1ccccc1 | > 100 | > 100 | > 100 | > 100 | > 100 | > 100 | > 100 | > 100 | > 100 | > 100 | > 100
5 | O=[N+]([O-])/C(C(Cl)=C(Cl)Cl)=C(/Cl)Sc1ccccc1 | 4.19 | 13.5 | 33.4 | 2.58 | 9.33 | 7.14 | 2.99 | 3.75 | 3.28 | 4.47 | 5.9
6 | CCOC(=O)c1nnc2c(C(=O)OCC)c3ccccc3n2c1N | 60.8 | > 100 | > 100 | > 100 | > 100 | > 100 | > 100 | > 100 | > 100 | 51.8 | > 100
7 | CCOC(=O)CN1C(=O)c2ccc(NC(=O)C(=O)O)cc2S1(=O)=O | > 100 | > 100 | > 100 | > 100 | > 100 | > 100 | > 100 | > 100 | > 100 | > 100 | > 100
8 | CC(CO)(CO)N1C(=O)C2C3C=CC(C3)C2C1=O (stereo not given) | > 100 | > 100 | > 100 | > 100 | > 100 | > 100 | > 100 | > 100 | > 100 | > 100 | > 100
9 | COC(=O)c1ccccc1/C=C1\Cc2ccc(C)c(C)c2C1=O | > 100 | > 100 | > 100 | > 100 | > 100 | > 100 | > 100 | > 100 | > 100 | > 100 | > 100
10 | CCOC(=O)CC[C@H](NC(=O)[C@H](N)Cc1ccc(N(CCCl)CCCl)cc1)C(=O)OCC | > 100 | > 100 | > 67.9 | > 68 | > 59.6 | 52.7 | > 87.3 | > 45.2 | > 54.3 | 23.5 | > 100
11 | COC(=O)/C=C(\C)CC(O)/C=C(\C)CCC=C(C)C (stereo not given) | > 100 | > 100 | > 100 | > 100 | > 100 | > 100 | > 100 | > 100 | > 100 | 42.7 | > 100
12 | COc1ccc(/C=C2\N=C(SC)N(CN3CCOCC3)C2=O)cc1 | > 100 | > 100 | > 100 | > 100 | > 100 | > 100 | > 100 | 78.2 | > 100 | > 100 | > 100
13 | CN(CC(=O)O)c1ncc2c(n1)CCCC2 | > 100 | > 100 | > 100 | > 100 | > 100 | > 100 | > 100 | > 100 | > 100 | > 100 | > 100
14 | O=c1[nH]nc(Cc2ccccc2)n1/N=C/c1ccccc1O | > 100 | > 100 | > 100 | > 100 | 99.8 | > 100 | > 100 | > 100 | > 100 | > 100 | > 100
15 | Clc1ccc(C2C3COc4ccccc4C3=NN2c2ccccc2)cc1 (stereo not given) | > 100 | > 100 | > 100 | > 100 | > 100 | > 100 | > 100 | > 100 | > 100 | > 100 | > 100
